Our source for the EC50 values is BindingDB's records for doi:10.7270/Q2PG1Q5Z (Broad Institute, 2010).

One may read the EC50 as the concentration needed to bring the measured effect to its halfway point. Low values mean higher potency in that assay, high ones lower potency in that assay.

In the experiment the target is T1, Alkanal monooxygenase alpha chain (Vibrio harveyi, UniProt P07740).
T1 sequence (P07740 whole entry): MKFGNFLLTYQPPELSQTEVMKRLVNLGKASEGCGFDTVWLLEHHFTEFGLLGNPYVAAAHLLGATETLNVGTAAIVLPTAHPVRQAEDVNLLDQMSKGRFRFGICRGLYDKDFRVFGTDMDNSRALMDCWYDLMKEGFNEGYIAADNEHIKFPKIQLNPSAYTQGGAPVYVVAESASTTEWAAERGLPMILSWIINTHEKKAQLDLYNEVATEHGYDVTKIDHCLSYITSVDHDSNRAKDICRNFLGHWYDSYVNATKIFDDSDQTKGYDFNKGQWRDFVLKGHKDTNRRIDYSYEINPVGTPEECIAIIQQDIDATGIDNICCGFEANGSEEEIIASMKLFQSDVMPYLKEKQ
The experiment in a line: inhibition of V. harveyi AI-2 signalling – luminescence, dose retest, Vibrio harveyi, confirmation (AID 2735).

Regarding `C=Cn1c(C(=O)O)ccc1-c1ccc(CC)cc1`, the EC50 turned out to be 25.8 µM. The result for `COc1cc(NC(=O)CN2C(=O)NC(c3ccccc3)(c3ccccc3)C2=O)cc(OC)c1` [MLS001176525] reads 10 µM; that for `CCc1ccc(S(=O)(=O)Nc2ccc(Br)cn2)cc1` [MLS001211346], 18.1 µM; that for `CCCc1ccc(S(=O)(=O)N(C)S(=O)(=O)c2ccc(F)cc2)cc1` [N-(4-fluorophenyl)sulfonyl-N-methyl-4-propylbenzenesulfonamide], 8.81 µM. For `CN(C)S(=O)(=O)c1ccc(NC(=S)NC(=O)Cc2ccccc2)cc1` [N-[[4-(dimethylsulfamoyl)phenyl]carbamothioyl]-2-phenyl-ethanamide], the half-maximal effective concentration (EC50) is > 160 µM. The result for `Cc1cccc(NS(=O)(=O)c2ccc(Oc3ccccc3)cc2)n1` [SMR000071466] reads 12.5 µM; that for `Cn1cnc(S(=O)(=O)Nc2ccc(OC(F)(F)F)cc2)c1` [SMR000314513], 24.5 µM.
